For assay [1], the target named is Growth/differentiation factor 8 (Homo sapiens) (UniProt O14793). Nature of the assay: Inhibition of myostatin (unknown origin) expressed in HEK293 cells at 10 uM incubated for 4 hrs by dual luciferase reporter gene assay. Type of assay: cell-based. Background: Reporter assays use an easily measured gene product as a stand-in for the process of interest.
Assay [2] has the same target. Nature of the assay: (§1) Inhibition of myostatin (unknown origin) expressed in HEK293 cells incubated for 4 hrs by dual luciferase reporter gene assay. Type of assay: cell-based.
The target in assay [3] is T1, Growth/differentiation factor 8 (Homo sapiens, UniProt O14793).
T1 sequence (O14793 whole entry): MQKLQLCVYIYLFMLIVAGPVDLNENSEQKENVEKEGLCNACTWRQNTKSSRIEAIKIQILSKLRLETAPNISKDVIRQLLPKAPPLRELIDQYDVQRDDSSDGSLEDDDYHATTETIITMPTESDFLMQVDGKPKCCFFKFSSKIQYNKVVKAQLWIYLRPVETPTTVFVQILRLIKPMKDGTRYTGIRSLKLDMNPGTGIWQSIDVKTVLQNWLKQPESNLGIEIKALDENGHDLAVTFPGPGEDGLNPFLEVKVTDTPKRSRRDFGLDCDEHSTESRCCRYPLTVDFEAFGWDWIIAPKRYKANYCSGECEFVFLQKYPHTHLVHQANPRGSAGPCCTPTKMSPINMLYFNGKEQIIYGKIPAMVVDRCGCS
The assay is described as §1. Format: cell-based.

Assay [4] relates to Mus musculus. Nature of the assay: Effect on muscle growth in C57BL/6J mouse assessed as increase in tibialis anterior muscle weight at 20 nmol administered intramuscularly measured at day 28 relative to control. Type of assay: functional.
Assay [5] concerns the target Transforming growth factor beta-1 proprotein (Homo sapiens) (UniProt P01137). As to the kind of experiment: Inhibition of TGFbeta1 (unknown origin) expressed in HEK293 cells at 0.3 to 10 uM incubated for 4 hrs by dual luciferase reporter gene assay. Format: cell-based.
Assay [6] relates to HEK293. As to the kind of experiment: Inhibition of activin A (unknown origin) expressed in HEK293 cells at 0.3 to 10 uM incubated for 4 hrs by dual luciferase reporter gene assay. Type of assay: cell-based. Conditions: Homo sapiens.

The source made the active and inactive calls. The calls are words filed in the database; no cut-off is given here. Non-standard residues stand in square brackets, D forms with d. Residues, ends and D or L forms follow the SMILES beside them. Chg = N[C@H](C(=O)O)C1CCCCC1

A word on the IC50: it is the midpoint of a concentration-inhibition curve. A lower IC50 goes with inhibition by little substance.

Sequence of Transforming growth factor beta-1 proprotein (Homo sapiens) (P01137 279-390 limits assumed): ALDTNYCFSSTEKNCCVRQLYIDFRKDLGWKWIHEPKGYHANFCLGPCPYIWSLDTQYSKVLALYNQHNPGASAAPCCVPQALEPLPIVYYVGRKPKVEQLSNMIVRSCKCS

On to `CC[C@H](C)[C@H](NC(=O)[C@H](CCSC)NC(=O)[C@H](Cc1c[nH]c2ccccc12)NC(=O)[C@H](CCCCN)NC(=O)[C@H](Cc1ccccc1)NC(=O)[C@H](CC(C)C)NC(=O)[C@@H](NC(=O)[C@H](CC(N)=O)NC(=O)[C@H](CC(=O)O)NC(=O)[C@H](CC(N)=O)NC(=O)[C@@H](N)C(C)C)[C@@H](C)O)C(=O)N[C@@H](C)C(=O)N[C@@H](CC(N)=O)C(=O)NCC(N)=O` (H-VNDNTLFKWMIANG-NH2), for which the inhibition entry in assay [1] was “inactive”.

On to `CC[C@H](C)[C@H](NC(=O)[C@H](CCSC)NC(=O)[C@H](Cc1c[nH]c2ccccc12)NC(=O)[C@H](CCCCN)NC(=O)[C@H](Cc1ccccc1)NC(=O)[C@H](CC(C)C)NC(=O)[C@@H](NC(=O)[C@H](CC(N)=O)NC(=O)[C@H](CC(=O)O)NC(=O)[C@H](CC(N)=O)NC(=O)[C@@H](N)C(C)C)[C@@H](C)O)C(=O)N[C@@H](Cc1ccccc1)C(=O)N[C@@H](C)C(=O)NCC(N)=O` (H-VNDNTLFKWMIFAG-NH2), for which, in assay [1], the inhibition entry is “inactive”.

As for `CC[C@H](C)[C@H](NC(=O)[C@H](CCSC)NC(=O)[C@H](Cc1c[nH]c2ccccc12)NC(=O)[C@H](CCCCN)NC(=O)[C@H](Cc1ccccc1)NC(=O)[C@H](CC(C)C)NC(=O)[C@@H](NC(=O)[C@H](CC(N)=O)NC(=O)[C@H](CC(=O)O)NC(=O)[C@H](CC(N)=O)NC(=O)[C@@H](N)C(C)C)[C@@H](C)O)C(=O)N[C@@H](Cc1ccccc1)C(=O)N[C@@H](CC(N)=O)C(N)=O` (H-VNDNTLFKWMIFN-NH2), the inhibition entry in assay [1] is “inactive”.

Consider `CC[C@H](C)[C@H](NC(=O)[C@H](CCSC)NC(=O)[C@H](Cc1c[nH]c2ccccc12)NC(=O)[C@H](CCCCN)NC(=O)[C@H](Cc1ccccc1)NC(=O)[C@H](CC(C)C)NC(=O)[C@@H](NC(=O)[C@H](CC(N)=O)NC(=O)[C@H](CC(=O)O)NC(=O)[C@H](CC(N)=O)NC(=O)[C@@H](N)C(C)C)[C@@H](C)O)C(=O)N[C@@H](Cc1ccccc1)C(=O)N[C@@H](CC(N)=O)C(=O)N[C@@H](C)C(N)=O` (H-VNDNTLFKWMIFNA-NH2), for which, in assay [1], the inhibition entry was “Active”.

`CC[C@H](C)[C@H](NC(=O)[C@H](CCSC)NC(=O)[C@H](Cc1c[nH]c2ccccc12)NC(=O)[C@H](CCCCN)NC(=O)[C@H](Cc1ccccc1)NC(=O)[C@H](CC(C)C)NC(=O)[C@@H](NC(=O)[C@H](CC(N)=O)NC(=O)[C@H](CC(=O)O)NC(=O)[C@H](CC(N)=O)NC(=O)[C@@H](N)C(C)C)[C@@H](C)O)C(=O)N[C@@H](Cc1ccccc1)C(=O)N[C@@H](CC(N)=O)C(=O)NCC(N)=O` (H-VNDNTLFKWMIFNG-NH2): the inhibition result in assay [2] was “Dose-dependent effect”. Moreover, it took 6.2 µM to reach half-maximal inhibition in assay [3] (IC50). The Activity in assay [4] was determined as 112%. Further, the inhibition result in assay [1] was “Active”. The inhibition entry in assay [5] and in assay [6] was “inactive” each time.

As for `CC[C@H](C)[C@H](NC(=O)[C@H](CCSC)NC(=O)[C@H](Cc1c[nH]c2ccccc12)NC(=O)[C@H](CCCCN)NC(=O)[C@H](Cc1ccccc1)NC(=O)[C@H](CC(C)C)NC(=O)[C@@H](NC(=O)[C@H](CC(N)=O)NC(=O)[C@H](CC(=O)O)NC(=O)[C@H](CC(N)=O)NC(=O)[C@@H](NC(=O)[C@H](CC(=O)O)NC(=O)[C@H](CCC(=O)O)NC(=O)[C@H](CCC(=O)O)NC(=O)[C@@H](NC(=O)[C@@H](N)Cc1c[nH]c2ccccc12)[C@@H](C)O)C(C)C)[C@@H](C)O)C(=O)N[C@@H](Cc1ccccc1)C(=O)N[C@@H](CC(N)=O)C(=O)NCC(N)=O` (H-WTEEDVNDNTLFKWMIFNG-NH2), the inhibition result in assay [1] was “inactive”.

Molecule `CC[C@H](C)[C@H](NC(=O)[C@H](CCC(N)=O)NC(=O)[C@@H](NC(=O)[C@H](CCCCN)NC(=O)[C@@H](NC(=O)[C@@H](Cc1c[nH]c2ccccc12)NC(=O)[C@H](CCCNC(=N)N)NC(=O)[C@@H](NC(=O)[C@H](Cc1ccc(O)cc1)NC(=O)[C@@H](N)Cc1c[nH]c2ccccc12)[C@@H](C)CC)[C@@H](C)CC)C1CCCCC1)C(=O)N[C@@H](Cc1c[nH]c2ccccc12)C(=O)N[C@@H](CO)C(=O)N[C@@H](CCCCN)C(=O)N[C@H](C(=O)N[C@@H](CCCNC(=N)N)C(=O)N[C@@H](CC(C)C)C(N)=O)C1CCCCC1` (H-WYIR[dW]IK[Chg]QIWSK[Chg]RL-NH2) registered an IC50 in assay [3] of 3.56 µM.
